# Measurements published in patent US20200330447A1, “CANCER TREATMENT VIA REPOSITIONED TRICYCLIC ANTI-DEPRESSANT-LIKE DRUGS AS ANTI-CANCER AGENTS AND NEW COMBINATIONS OF SUCH DRUGS” (Board of Supervisors of Louisiana State University and …, priority 2015, published 2020).
# Key:
# Assay type in all cases: cell-based
# [1] = test system: A172 glioblastoma cells; assay: Acidic media pH induced lysosome distribution, LAMP-1 IF imaging; settings: for acidic media induced trafficking of lysosomes to the cell periphery: 5 or 10 μM overnight, then low pHe media with drug 2 h; for lysosomal outward movement, early time: 5 or 10 μM, 2 h then low pHe media with drugs 2 h (4 hours); for inward movement of lysosomes, single drug: one micromolar alone
# Method: (§1) A172 glioblastoma cells were treated overnight with 5 or 10 μM deptropine or pizotifen or with the deptropine or pizotifen in combination at 5 μM concentration. The next day, media was change to low pHe media containing deptropine or pizotifen and the cells were incubated for an additional 2 h. EIPA is a known inhibitor of lysosomal outward movement and represents the positive control. At the end of the incubation time, cells were fixed and stained for LAMP-1, filamentous actin and nuclei. Representative merged IF images depicting the effect of pHe 7.4, pHe 6.4, DMSO or deptropine and pizotifen on the distribution of lysosomes in A172 glioblastoma cells. On color versions of the Figure, red puncta are lysosomes, blue is nuclei and green is actin. As could be seen, lysosomes appear more peripherally distributed in A172 glioma cells than in cells treated with concentrations of 5 to 10 micromolar deptropine or pizotifen.
# Cells were treated as described above with FIG. 2 but included a concentration of 0.1 micromolar and 1 micromolar deptropine and pizotifen.
# Turning to FIG. 7, an additional aspect of this technology is how quickly deptropine and pizotifen act to move lysosomes towards the nucleus. […] A172 glioblastoma cells were treated with the 5 or 10 μM deptropine or pizofifen for 2 h and then with low pHe media containing the drugs for an additional 2 hours. At the end of incubation time, cells were fixed and stained for LAMP-1, filamentous actin, and nuclei. Representative merged IF images depicting the effect of DMSO, 5 and 10 μM deptropine or pizotifen upon 4 hours on the distribution of lysosomes, colored red in color images, in A172 glioblastoma cells. Also shown in color images are actin, colored green, and nuclei, colored blue.
# [2] = test system: U373 glioma cell lines; assay: Lysosome outward movement in U373 cells; settings: method of FIG. 2
# Method: as §1
# In an additional experiment, following the method whose results are shown in FIG. 2 above but with different cells, the broad range and general effectiveness of deptropine and pizotifen is shown beyond just in A172 glioblastoma cells. Specifically, deptropine and pizotifen were applied to U373 glioma cell lines instead of A172 glioblastoma cells.
# [3] = test system: A172 cells; assay: Standard MTS assay (proliferation); settings: concentrations up to 10 micromolar
# Method: A very beneficial aspect of the treatment with deptropine and pizotifen is shown in FIG. 11, namely that the actions of deptropine and pizotifen are not the result of toxicity. The standard MTS assay was performed for A172 cells in the presence of the indicate concentrations of deptropine and pizotifen.
SMILES,acidic media induced trafficking of lysosomes to the cell periphery [1],"lysosomal outward movement, early time [1]","inward movement of lysosomes, single drug [1]",lysosome outward movement [2],proliferation (MTS) [3]
"CN1[C@@H]2CC[C@H]1C[C@@H](OC1c3ccccc3CCc3ccccc31)C2 [deptropine, 3a-[(10, 11-dihydro-5H-dibenzo[a,d]cyclohepten-5-yl)oxy]1aH,5aH-tropane]",blocks acidic media induced trafficking of lysosomes to the cell periphery,prevent lysosomal outward movement,only a marginal effect,block lysosome outward movement,do not inhibit proliferation
"CN1CCC(=C2c3ccccc3CCc3sccc32)CC1 [pizotifen, 4-(1-methyl-4-piperidylidine)-9,10-dihydro-4H-benzo-[4,5]cyclohepta[1,2]-thiophene]",blocks acidic media induced trafficking of lysosomes to the cell periphery,prevent lysosomal outward movement,only a marginal effect,block lysosome outward movement,do not inhibit proliferation
